Source: patent US5284826A, “0-hydroxyethyl and acyloxyethyl derivatives of [ser]^8 cyclosporins” (Sandoz Ltd., priority 1989, dated 1994)

Assay: Stability of solid-state forms
Format: physicochemical
Details: B form (hydrate from acetone/water) compared with amorphous form and A and C modifications
Excerpt: Cyclosporins according to the invention may exist in the solid state in amorphous form or in one or more crystalline forms. For example, the compound of Example 2 below exists in amorphous form or in at least three crystalline forms, distinguishable by X-ray diffraction and designated the A, B and C modifications.

stability of crystal form: most stable
Compound: C/C=C/C[C@@H](C)[C@@H](O)[C@H]1C(=O)N[C@@H](CC)C(=O)N(C)CC(=O)N(C)[C@@H](CC(C)C)C(=O)N[C@@H](C(C)C)C(=O)N(C)[C@@H](CC(C)C)C(=O)N[C@@H](C)C(=O)N[C@H](COCCO)C(=O)N(C)[C@@H](CC(C)C)C(=O)N(C)[C@@H](CC(C)C)C(=O)N(C)[C@@H](C(C)C)C(=O)N1C [Example 2, [O-(2-hydroxyethyl)(D)Ser]^8 -Ciclosporin]
